# Experiments:
# [1] = Light generation from compounds following incubation with hydrogen peroxide in different pH solutions (D-cysteine conversion, LDR); assay type: biochemical; details: for Signal to Background Ratios: signal with peroxide to background no peroxide
# Method: In this experiment, various compounds were tested for their ability to detect hydrogen peroxide in different pH solutions. Several compounds are shown to give much better signal strength and signal to background ratios than PBI 3048 (Example 23). 4 mg/ml solutions of compounds PBI 4480, 4481, 4452, 4470, 4472, 3048 (FIGS. 1 and 2) were made by dissolving them in DMSO (Fluka 41641). 30 μl of the compound solutions was diluted to 1.5 ml with Nanopure water, and 50 μl aliquots added as follows into a white, 96-well luminometer plate: PBI 4481, row A1-12; PBI 4480, row B1-12; PBI 4452, row C1-12; PBI 3048, row D1-12; PBI 4472, row E1-12 and PBI 4470, row F1-12.
# 25 μl of 200 mM TRIS buffer, pH 7.6 was added to wells A1-F4, 25 μl of 200 mM TRIS buffer, pH 8.8 was added to wells A5-F8, and 25 μl of 200 mM Tris buffer, pH 10.4 was added […].
# 30% hydrogen peroxide (Sigma H 1009-5 ml) was diluted to 40 μM in Nanopure water, and 25 μl added to columns 3, 4, 7, 8, 11 and 12 of the plate. 25 μl water was added to columns 1, 2, 5, 6, 9, and 10 of the plate, and the plate incubated at room temperature for 60 minutes.
# A conversion solution was made by mixing 100 μl of 100 mM D-cysteine, 1 ml Tris Buffer pH 8.8 and 8.9 ml nanopure water. After mixing, 80 μl of the solution was added to wells A1-F12 of a new luminometer plate.
# After incubation, 20 μl of sample from wells A1-F12 of the first plate was transferred to the same well in the new luminometer plate. The new plate was incubated at room temperature for 5 minutes, 100 μl of LDR (Example 23) was added to wells A1-F12, and bioluminescence detected on a Glo Max® luminometer (Promega).
# The RLUs for the duplicate wells were averaged. The averages for the wells containing hydrogen peroxide were compared to the wells without hydrogen peroxide at the same pH (Table 2). BZT is used to designate benzothiazole derivatives of the compounds.
# The Signal to Background (S/B) ratio is used to compare assay reagents with very difference signal strengths. An assay with a higher S/B ratio is often considered a better assay than one with a smaller S/B ratio (with all other factors being relatively equal).
# [2] = Detection of hydrogen peroxide using coelenterazine borate with NanoLuc luciferase; assay type: biochemical; details: 12.5 uM compound, 40 ng/ml NanoLuc luciferase, 200 mM Tris-Cl pH 8.5 or pH 9.0, FIG. 3
# Method: PBI 4759 (10 mM; final concentration 12.5 uM), various concentrations of hydrogen peroxide and 40 ng/ml NanoLuc™ luciferase enzyme (Promega Corporation) were added to wells of a 96-well assay plate containing 200 mM Tris-Cl either at pH 8.5 or pH 9.0. Luminescence was detected on a GloMax® luminometer.
# [3] = pH 7.6 TRIS buffer, No H2O2, 60 minutes
# [4] = pH 7.6 TRIS buffer, With H2O2 (25 μl of 40 μM added), 60 minutes
# [5] = pH 8.8 TRIS buffer, No H2O2, 60 minutes
# [6] = pH 8.8 TRIS buffer, With H2O2 (25 μl of 40 μM added), 60 minutes
# [7] = pH 10.4 Tris buffer, No H2O2, 60 minutes
# [8] = pH 10.4 Tris buffer, With H2O2 (25 μl of 40 μM added), 60 minutes
Structure (SMILES),Signal to Background Ratios ([1]; pH 7.6),"averaged RLUs (bioluminescence) [1, 3]","averaged RLUs (bioluminescence) [1, 4]",Signal to Background Ratios ([1]; pH 8.8),"averaged RLUs (bioluminescence) [1, 5]","averaged RLUs (bioluminescence) [1, 6]",Signal to Background Ratios ([1]; pH 10.4),"averaged RLUs (bioluminescence) [1, 7]","averaged RLUs (bioluminescence) [1, 8]",detection of hydrogen peroxide by luminescence (in words) [2]
"N#Cc1nc2ccc(OCc3ccc(B(O)O)cc3)cc2s1 [PBI 4452, (4-(((2-cyanobenzo[d]thiazol-6-yl)oxy)methyl)phenyl)boronic acid]",1.9,"607,036 RLU","1,182,338 RLU",4.4,"632,327 RLU","2,790,924 RLU",15.8,"921,935 RLU","14,577,312 RLU",–
"N#Cc1nc2ccc(OCc3ccc(B(O)O)c(Cl)c3)cc2s1 [PBI 4470, (2-chloro-4-(((2-cyanobenzo[d]thiazol-6-yl)oxy)methyl)phenyl)boronic acid]",1.4,"492,941 RLU","701,300 RLU",3.3,"468,729 RLU","1,525,058 RLU",16.3,"819,416 RLU","13,391,102 RLU",–
"CC1(C)OB(c2ccc(COc3c(Cc4ccco4)nc4c(Cc5ccccc5)nc(-c5ccccc5)cn34)cc2)OC1(C)C [PBI 4759, 8-benzyl-2-(furan-2-ylmethyl)-6-phenyl-3-((4-(4,4,5,5-tetramethyl-1,3,2-dioxaborolan-2-yl)benzyl)oxy)imidazo[1,2-a]pyrazine]",–,–,–,–,–,–,–,–,–,allows sensitive detection of hydrogen peroxide

# — US8937183B2, “Detection of hydrogen peroxide” (Promega Corporation, priority 2011, dated 2015)
